Test results published in patent EP4541885A1, “OPTIMIZED PHLOROGLUCINOL SYNTHASES” (priority 2023, dated 2025).

Key:
Assay in all cases: Kinetic parameters determination (HPLC monitoring of MLC consumed and CoA produced)
[1] = target: T1, Tsukamurella pulmonis phloroglucinol synthase PhlD_Tpu WT, wild type, SEQ ID NO: 1 (Tsukamurella pulmonis, UniProt A0A1H1FBR5); type: biochemical; settings: MLC 5-100 µM, sodium phosphate buffer 50 mM pH 7, 30°C, 0.5 µM pure enzyme
T1 sequence (A0A1H1FBR5 1-390): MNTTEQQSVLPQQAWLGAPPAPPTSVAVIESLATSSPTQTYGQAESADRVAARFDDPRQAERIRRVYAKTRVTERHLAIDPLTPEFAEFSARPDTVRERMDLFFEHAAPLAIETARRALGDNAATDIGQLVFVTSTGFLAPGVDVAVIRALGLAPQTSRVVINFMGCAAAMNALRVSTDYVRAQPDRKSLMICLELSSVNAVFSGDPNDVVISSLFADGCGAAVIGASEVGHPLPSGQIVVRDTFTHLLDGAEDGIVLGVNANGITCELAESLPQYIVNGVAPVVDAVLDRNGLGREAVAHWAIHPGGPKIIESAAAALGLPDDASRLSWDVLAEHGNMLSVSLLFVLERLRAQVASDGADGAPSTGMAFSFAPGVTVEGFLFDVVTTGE
Description: (§1) The selected PhlD_Tpu sequences are amplified from the yeast expression plasmid and fused with a 6xHis tag encoded at the C-terminus. This fusion is inserted into the pET26b(+) plasmid, between the XhoI and NdeI restriction sites (as shown in Figure 4), with the […] controlling its expression. The recombinant plasmid is used to transform E. coli BL21(DE3) competent cells, which are grown in LB medium (10 g/L NaCl, 10 g/L Tryptone, 5 g/L yeast extract) at 37° C with shaking, in a final volume of 500 mL. The expression of the recombinant plasmid is initiated by adding 0.1 mM of IPTG when the OD600nm reaches 0.4-0.5. The cells are then allowed to grow overnight at 20°C until they reach an OD600nm of approximately 1.5-1.6.
(§2) E. coli BL21(DE3) cells transformed as described in paragraph 1.2.4 above were disrupted by Fast-Prep at a speed setting of 6 m/sec for 3 cycles of 45 sec. The supernatant is filtered on a 0.45 µm membrane before being applied to a 1 mL Talon® Resin column. The column is washed first with 10 column volumes of sodium phosphate buffer (50 mM, pH7; NaCl 100 mM) and with 10 column volumes of sodium phosphate buffer with 10 mM of imidazole ([…], Phosphate buffer 50 mM, 500 mM imidazole pH 8.5; 100mM NaCl). Protein elution is performed using 150 mM imidazole in sodium phosphate buffer (50 mM pH 7, NaCl 100mM). Collected fractions are pooled and diafiltrated using 5 volumes of sodium phosphate buffer (50 mM pH 7, NaCl 100mM) using a 30 kDa diafiltration unit (Amicon ®Ultra, Merck) before reducing the volume to 500 µL.
(§3) The concentrate is applied on a gel filtration column (S200 TRICORN 10/300 Superdex 200). Elution is performed with an isocratic gradient of sodium phosphate buffer (50 mM pH 7, NaCl 100mM). The purity of the various fractions obtained is checked by SDS-PAGE (Mini-PROTEAN TGX Stain-Free Gels, Bio Rad)
(§4) In order to access the kinetic parameters of PhlD_Tpu, the concentrations of MLC consumed and CoA produced were monitored by HPLC. The experiments were run for 120 sec and only the linear part of CoA variation with time was used to calculate initial velocity. The experiments were carried using a range of MLC concentrations (5-100 µM) in sodium phosphate buffer (50 mM pH 7), at 30°C, and with 0.5 µM of pure enzyme. At 10, 20, 30, 50, 60 and 120 sec, 100 µL aliquots of the reaction mixture were quenched with 10 µL of 10% (v/v) formic acid and kept at room temperature before HPLC analysis. With these conditions, the CoA production increased linearly with time until 50 sec. Table 7: HPLC conditions for MLC and CoA separation and quantification.

[2] = test system: Tsukamurella pulmonis phloroglucinol synthase PhlD_Tpu variant M27 (A124P, A154P, S177A, S236P, E268Q, E271R, A298D), SEQ ID NO: 3; type: biochemical
Description: as §1, §2, §3, §4

[3] = test system: CC(C)(COP(=O)(O)OP(=O)(O)OC[C@H]1O[C@@H](n2cnc3c(N)ncnc32)[C@H](O)[C@@H]1OP(=O)(O)O)[C@@H](O)C(=O)NCCC(=O)NCCSC(=O)CC(=O)O; type: biochemical, Tsukamurella pulmonis; settings: other: MLC 5-100 µM, sodium phosphate buffer 50 mM pH 7, 30°C, 0.5 µM pure enzyme
Description: as §1, §2, §3, §4

[4] = substrate: CC(C)(COP(=O)(O)OP(=O)(O)OC[C@H]1O[C@@H](n2cnc3c(N)ncnc32)[C@H](O)[C@@H]1OP(=O)(O)O)[C@@H](O)C(=O)NCCC(=O)NCCSC(=O)CC(=O)O; type: biochemical, Tsukamurella pulmonis; settings: other: MLC 5-100 µM, sodium phosphate buffer 50 mM pH 7, 30°C, 0.5 µM pure enzyme; remark: listed apart in the source
Description: as §1
E. coli BL21(DE3) cells transformed as described in paragraph 1.2.4 above were disrupted by Fast-Prep at a speed setting of 6 m/sec for 3 cycles of 45 sec. The supernatant is filtered on a 0.45 µm membrane before being applied to a 1 mL Talon® Resin column. […]
In order to access the kinetic parameters of PhlD_Tpu, the concentrations of MLC consumed and CoA produced were monitored by HPLC. […] Table 7: HPLC conditions for MLC and CoA separation and quantification.

Q: With `CC(C)(COP(=O)(O)OP(=O)(O)OC[C@H]1O[C@@H](n2cnc3c(N)ncnc32)[C@H](O)[C@@H]1OP(=O)(O)O)[C@@H](O)C(=O)NCCC(=O)NCCSC(=O)CC(=O)O` [malonyl-CoA] as the molecule, how does the kcat [1] read?
A: 0.38 s⁻¹

Q: What about the “kcat reduced by a factor (M27 vs PhlD_Tpu WT)” value ([2]; factor of reduction relative to PhlD_Tpu WT) of the same molecule?
A: 1.3

Q: And the “KM relative to PhlD_Tpu WT” value ([2]; relative to PhlD_Tpu WT)?
A: twice lower

Q: And the “catalytic efficiency, times higher compared to PhlD_Tpu WT” value ([2]; relative to PhlD_Tpu WT)?
A: 1.6

Q: With “Tsukamurella pulmonis phloroglucinol synthase PhlD_Tpu variant M27 (A124P, A154P, S177A, S236P, E268Q, E271R, A298D), SEQ ID NO: 3 (Tsukamurella pulmonis; A124P/A154P/A298D/E268Q/E271R/S177A/S236P)” as the molecule, how does the Km [3] read?
A: 4.9 ± 0.544 µM

Q: And the kcat [3]?
A: 0.28 ± 0.06 s⁻¹

Q: What about the kcat/Km [3] of the same molecule?
A: 57000 M⁻¹ s⁻¹

B1: Tsukamurella pulmonis phloroglucinol synthase PhlD_Tpu WT, wild type, SEQ ID NO: 1 (Tsukamurella pulmonis) (protein)
chain: T1 sequence (A0A1H1FBR5 1-390)
Q: How did the Km [4] turn out when B1 was run?
A: 10.52 µM
